ChEMBL document CHEMBL1833836, “Synthesis and evaluation of phosphoramidate and phosphorothioamidate analogues of amiprophos methyl as potential antimalarial agents” (Bioorg Med Chem Lett, 2011)
Active and inactive are the calls of the source. No cut-off for these calls is given here.

Legend:
[1] = system: Plasmodium falciparum; assay: Antimalarial activity against Plasmodium falciparum 3D7 infected in O-positive human erythrocytes assessed as inhibition of parasite lactate dehydrogenase after 72 hrs by pLDH method; type: functional, organism-based; conditions: 3D7, 72 h
[2] = system: Plasmodium falciparum; assay: Ratio of compound IC50 to APM IC50 for Plasmodium falciparum 3D7; type: functional
[3] = system: Cryptosporidium parvum; assay: Antimicrobial activity against Cryptosporidium parvum infected in HCT8 cells assessed as parasite count after 72 to 120 hrs; type: functional, organism-based; conditions: HCT-8
[4] = system: Plasmodium falciparum; assay: Antimicrobial activity against Plasmodium falciparum; type: functional, organism-based
[5] = system: Plasmodium falciparum; assay: Antimicrobial activity against Plasmodium falciparum up to 128 uM; type: functional, organism-based

SMILES	IC50 [1]	Ratio IC50 [2]	IC50 [3]	IC50 [4]	inhibition [5]
CCOP(=O)(NC1CCC1)Oc1ccc(C(F)(F)F)cc1 (stereo unspecified)	45 µM	20			
CCOP(=O)(NCC(C)C)Oc1ccc(C(F)(F)F)cc1 (racemic)	40 µM	20			
CCOP(=O)(NC(C)C)Oc1ccc2ccccc2c1 (stereo unspecified)	72 µM	20			
CCOP(=O)(NCC(C)C)Oc1ccc(C)cc1[N+](=O)[O-] (stereo unspecified)	75 µM	20			
CCCCCCCNP(=O)(OCC)Oc1ccc(C(F)(F)F)cc1 (stereo unspecified)	44 µM	20			
CCCN(CCC)c1c([N+](=O)[O-])cc(S(N)(=O)=O)cc1[N+](=O)[O-] [ORYZALIN]			0.8 µM		
CCN(CC)CCN(CC)c1c([N+](=O)[O-])cc([N+](=O)[O-])cc1C(F)(F)F				0.44 µM	
CCOP(=S)(NC1CCCC1)Oc1ccc([N+](=O)[O-])cc1C (stereo unspecified)	1.6 µM				
CCOP(=O)(NC(C)C)Oc1ccccc1C(F)(F)F (stereo unspecified)	87 µM	20			
CCOP(=O)(NC(C)C)Oc1ccc(C)cc1Cl (stereo unspecified)	39 µM	20			
CCOP(=S)(NC1CCCC1)Oc1ccc(C(F)(F)F)cc1 (stereo unspecified)	8.6 µM	20			
COP(=S)(NC(C)C)Oc1ccc(C)cc1[N+](=O)[O-] (stereo unspecified) [AMIPROPHOS METHYL]	4 µM				
O=[N+]([O-])c1cc([N+](=O)[O-])c(N2CCC(N3CCCC3)CC2)c(C(F)(F)F)c1				0.44 µM	
CCOP(=O)(NC(C)C)Oc1ccc(C)cc1OC (stereo unspecified)	128 µM	20			
CCOP(=O)(NC(C)C)Oc1ccc(C(F)(F)F)cc1 (stereo unspecified)	50 µM	20			
CCOP(=O)(NC(C)C)Oc1cc([N+](=O)[O-])ccc1C (stereo unspecified)	128 µM	20			
CCOP(=O)(NC(C)C)Oc1cccc([N+](=O)[O-])c1C (stereo unspecified)	128 µM	20			
CCOP(=O)(NC(C)C)Oc1ccc(C)cc1Br (stereo unspecified)	39 µM	20			
CCCNP(=O)(OCC)Oc1ccc(C)cc1[N+](=O)[O-] (stereo unspecified)	> 128 µM	20			
CC(C)OC(=O)Nc1cccc(Cl)c1					inactive
CCOP(=O)(NC(C)C)Oc1ccc2ccccc2c1[N+](=O)[O-] (stereo unspecified)	87 µM	20			
CCOP(=O)(Oc1ccc(C(F)(F)F)cc1)N1CCCC1 (stereo unspecified)	56 µM	20			
CCOP(=O)(NCC(C)C)Oc1cc(C)ccc1[N+](=O)[O-] (stereo unspecified)	> 128 µM	20			
CCOP(=S)(NC1CCCC1)Oc1ccc(Br)cc1 (stereo unspecified)	23 µM				

SMILES	IC50 [1]	Ratio IC50 [2]	IC50 [3]	IC50 [4]	inhibition [5]
CCOP(NC1CCCC1)Oc1ccc(Br)cc1 (stereo unspecified)	128 µM				
CCOP(=O)(NC(C)C)Oc1ccc([N+](=O)[O-])c(C)c1 (stereo unspecified)	79 µM	20			
CCCCCNP(=O)(OCC)Oc1ccc(C)cc1[N+](=O)[O-] (stereo unspecified)	51 µM	20			
CCCCCNP(=S)(OCC)Oc1ccc(C(F)(F)F)cc1 (stereo unspecified)	4.5 µM				
CCOP(=O)(NC1CCCC1)Oc1ccc(C)cc1[N+](=O)[O-] (stereo unspecified)	47 µM	20			
CCOP(=O)(NC(C)C)Oc1cccc(C(F)(F)F)c1 (stereo unspecified)	50 µM	20			
CCOP(=O)(NC1CCCCC1)Oc1ccc(C(F)(F)F)cc1 (stereo unspecified)	43 µM	20			
CCOP(=O)(NC(C)C)Oc1ccc([N+](=O)[O-])cc1C (stereo unspecified)	128 µM	20			
CCOP(=O)(Oc1ccc(C(F)(F)F)cc1)N1CCCCC1 (stereo unspecified)	84 µM	20			
CCOP(=O)(NC1CCCC1)Oc1ccc(C(F)(F)F)cc1 (stereo unspecified)	26 µM	20			
CCOP(N)(=O)Oc1ccc(C(F)(F)F)cc1 (stereo unspecified)	79 µM	20			
CCOP(=O)(NC(C)C)Oc1ccccc1 (stereo unspecified)	> 128 µM	20			
CCOP(=O)(NC1CCCC1)Oc1ccc(Br)cc1 (stereo unspecified)	17 µM	20			
CCOP(=O)(Oc1ccc(C(F)(F)F)cc1)N1CCOCC1 (stereo unspecified)	98 µM	20			
CCCN(CCC)c1c([N+](=O)[O-])cc(C(F)(F)F)cc1[N+](=O)[O-] [TRIFLURALIN]			0.75 µM	2.9 µM	
CCOP(=O)(NC(C)C)Oc1ccc(C)cc1[N+](=O)[O-] (stereo unspecified)	126 µM	20			
CCOP(=O)(NC(C)C)Oc1cc(C)ccc1[N+](=O)[O-] (stereo unspecified)	> 128 µM	20			
CCOP(=O)(Oc1ccc(C(F)(F)F)cc1)N(CC)CC (stereo unspecified)	48 µM	20			
CCOP(=O)(NC(C)C)Oc1ccc(C)cc1C#N (stereo unspecified)	128 µM	20			
CCCCNP(=O)(OCC)Oc1ccc(C(F)(F)F)cc1 (stereo unspecified)	32 µM	20			
CCCNP(=O)(OCC)Oc1cc(C)ccc1[N+](=O)[O-] (stereo unspecified)	102 µM	20			
CCOP(=O)(Nc1ccc(C)cc1Cl)Oc1ccc(C)cc1Cl (stereo unspecified)	102 µM	20			
CCCCCNP(=S)(OCC)Oc1ccc([N+](=O)[O-])cc1C (stereo unspecified)	6.9 µM				
CCCCNP(=O)(OCC)Oc1ccc(C)cc1[N+](=O)[O-] (stereo unspecified)	28 µM	20			
